From ChEMBL document CHEMBL3865816, “Design, synthesis and biological evaluation of novel azaspiro analogs of linezolid as antibacterial and antitubercular agents” (Eur J Med Chem, 2016)
In brackets after ≈: the same amount, converted by molar mass.

Columns and labels:
Assay type in all cases: functional
Pseudomonas aeruginosa [1] = assay: Antibacterial activity against Pseudomonas aeruginosa NCIM 2036 measured after 8 hrs by spectrophotometric method; settings: NCIM 2036, 8 h
Staphylococcus aureus [2] = assay: Antibacterial activity against Staphylococcus aureus NCIM 2079 measured after 12 hrs by spectrophotometric method; settings: NCIM 2079, 12 h
Escherichia coli [3] = assay: Antibacterial activity against Escherichia coli NCIM 2688 measured after 8 hrs by spectrophotometric method; settings: NCIM 2688, 8 h
Bacillus subtilis [4] = assay: Antibacterial activity against Bacillus subtilis NCIM 2010 measured after 12 hrs by spectrophotometric method; settings: NCIM 2010, 12 h
[5] = test system: Mycobacterium tuberculosis; assay: Antitubercular activity against dormant stage Mycobacterium tuberculosis H37Ra measured after 12 days by XTT assay; settings: 288 h
Escherichia coli [6] = assay: Antibacterial activity against Escherichia coli NCIM 2688 at 30 ug/ml measured after 8 hrs by spectrophotometric method; settings: NCIM 2688, 8 h
Escherichia coli [7] = assay: Antibacterial activity against Escherichia coli NCIM 2688 at 10 ug/ml measured after 8 hrs by spectrophotometric method; settings: NCIM 2688, 8 h
Escherichia coli [8] = assay: Antibacterial activity against Escherichia coli NCIM 2688 at 3 ug/ml measured after 8 hrs by spectrophotometric method; settings: NCIM 2688, 8 h
Pseudomonas aeruginosa [9] = assay: Antibacterial activity against Pseudomonas aeruginosa NCIM 2036 at 30 ug/ml measured after 8 hrs by spectrophotometric method; settings: NCIM 2036, 8 h
Pseudomonas aeruginosa [10] = assay: Antibacterial activity against Pseudomonas aeruginosa NCIM 2036 at 10 ug/ml measured after 8 hrs by spectrophotometric method; settings: NCIM 2036, 8 h
Pseudomonas aeruginosa [11] = assay: Antibacterial activity against Pseudomonas aeruginosa NCIM 2036 at 3 ug/ml measured after 8 hrs by spectrophotometric method; settings: NCIM 2036, 8 h
Staphylococcus aureus [12] = assay: Antibacterial activity against Staphylococcus aureus NCIM 2079 at 30 ug/ml measured after 12 hrs by spectrophotometric method; settings: NCIM 2079, 12 h
Staphylococcus aureus [13] = assay: Antibacterial activity against Staphylococcus aureus NCIM 2079 at 10 ug/ml measured after 12 hrs by spectrophotometric method; settings: NCIM 2079, 12 h
Staphylococcus aureus [14] = assay: Antibacterial activity against Staphylococcus aureus NCIM 2079 at 3 ug/ml measured after 12 hrs by spectrophotometric method; settings: NCIM 2079, 12 h
Bacillus subtilis [15] = assay: Antibacterial activity against Bacillus subtilis NCIM 2010 at 30 ug/ml measured after 12 hrs by spectrophotometric method; settings: NCIM 2010, 12 h
Bacillus subtilis [16] = assay: Antibacterial activity against Bacillus subtilis NCIM 2010 at 10 ug/ml measured after 12 hrs by spectrophotometric method; settings: NCIM 2010, 12 h
Bacillus subtilis [17] = assay: Antibacterial activity against Bacillus subtilis NCIM 2010 at 3 ug/ml measured after 12 hrs by spectrophotometric method; settings: NCIM 2010, 12 h
[18] = test system: Mycobacterium tuberculosis; assay: Antitubercular activity against dormant stage Mycobacterium tuberculosis H37Ra at 30 ug/ml measured after 12 days by XTT assay; settings: 288 h
[19] = test system: Mycobacterium tuberculosis; assay: Antitubercular activity against dormant stage Mycobacterium tuberculosis H37Ra at 10 ug/ml measured after 12 days by XTT assay; settings: 288 h
[20] = test system: Mycobacterium tuberculosis; assay: Antitubercular activity against dormant stage Mycobacterium tuberculosis H37Ra at 3 ug/ml measured after 12 days by XTT assay; settings: 288 h

Row | SMILES | IC50 (Pseudomonas aeruginosa [1]) [µg/mL] | MIC (Pseudomonas aeruginosa [1]) [µg/mL] | IC50 (Staphylococcus aureus [2]) [µg/mL] | MIC (Staphylococcus aureus [2]) [µg/mL] | IC50 (Escherichia coli [3]) [µg/mL] | MIC (Escherichia coli [3]) [µg/mL] | IC50 (Bacillus subtilis [4]) [µg/mL] | MIC (Bacillus subtilis [4]) [µg/mL] | IC50 [5] [µg/mL] | MIC [5] [µg/mL] | inhibition at 30 µg/mL (Escherichia coli [6]) [%] | inhibition at 10 µg/mL (Escherichia coli [7]) [%] | inhibition at 3 µg/mL (Escherichia coli [8]) [%] | inhibition at 30 µg/mL (Pseudomonas aeruginosa [9]) [%] | inhibition at 10 µg/mL (Pseudomonas aeruginosa [10]) [%] | inhibition at 3 µg/mL (Pseudomonas aeruginosa [11]) [%] | inhibition at 30 µg/mL (Staphylococcus aureus [12]) [%] | inhibition at 10 µg/mL (Staphylococcus aureus [13]) [%] | inhibition at 3 µg/mL (Staphylococcus aureus [14]) [%] | inhibition at 30 µg/mL (Bacillus subtilis [15]) [%] | further results
1 | O=C1OC2(CCN(Cc3ccccc3)C2)CN1c1ccc(N2CCOCC2)c(F)c1 (stereo not given) | > 100 | > 100 | > 100 | > 100 | > 100 | > 100 | > 100 | > 100 | > 100 | > 100 | 23.9 | 23.7 | 31.2 | 50.1 | 32.7 | 35.9 | 23.1 | 22.9 | 30.5 | 14.7 | inhibition at 10 µg/mL (Bacillus subtilis [16]): 17.4%; inhibition at 3 µg/mL (Bacillus subtilis [17]): 24.5%; inhibition at 30 µg/mL [18]: 20.8%; inhibition at 10 µg/mL [19]: 7.06%; inhibition at 3 µg/mL [20]: 18.1%
2 | CC(C)NC(=S)NC[C@H]1CN(c2ccc(N3CC4(COC4)C3)c(F)c2)C(=O)O1 | 1.27 (≈ 3.11 µM) | 32.3 (≈ 79 µM) | > 100 | > 100 | > 100 | > 100 | 0.64 (≈ 1.57 µM) | 6.04 (≈ 14.8 µM) | > 100 | > 100 | 91.3 | 58.9 | 46.7 | 91.4 | 83.8 | 72.6 | 93 | 75.2 | 58.8 | 99.3 | inhibition at 10 µg/mL (Bacillus subtilis [16]): 95.1%; inhibition at 3 µg/mL (Bacillus subtilis [17]): 82%; inhibition at 30 µg/mL [18]: 48.8%; inhibition at 10 µg/mL [19]: 7.27%; inhibition at 3 µg/mL [20]: -11.7%
3 | O=C1O[C@@H](CNS(=O)(=O)c2cc(Cl)cc(Cl)c2)CN1c1ccc(N2CC3(COC3)C2)c(F)c1 | > 100 | > 100 | > 100 | > 100 | > 100 | > 100 | > 100 | > 100 | > 100 | > 100 | 25.4 | 23.5 | 36.8 | 86.6 | 67.2 | 42.2 | 74.2 | 50.6 | 55.1 | 66.6 | inhibition at 10 µg/mL (Bacillus subtilis [16]): 56.1%; inhibition at 3 µg/mL (Bacillus subtilis [17]): 51%; inhibition at 30 µg/mL [18]: 23.2%; inhibition at 10 µg/mL [19]: -5.84%; inhibition at 3 µg/mL [20]: 8.02%
4 | CC(=O)N1CCC2(C1)CN(c1ccc(N3CCOCC3)c(F)c1)C(=O)O2 (stereo not given) | > 100 | > 100 | > 100 | > 100 | > 100 | > 100 | > 100 | > 100 | > 100 | > 100 | 46 | 42 | 36.2 | 56.2 | 48.4 | 42.8 | 53.6 | 50.2 | 45.2 | 42.2 | inhibition at 10 µg/mL (Bacillus subtilis [16]): 32.2%; inhibition at 3 µg/mL (Bacillus subtilis [17]): 23.9%; inhibition at 30 µg/mL [18]: 12%; inhibition at 10 µg/mL [19]: -8.05%; inhibition at 3 µg/mL [20]: 19.7%
5 | CC(C)(C)NC(=S)NC[C@H]1CN(c2ccc(N3CC4(COC4)C3)c(F)c2)C(=O)O1 | > 100 | > 100 | 1.45 (≈ 3.43 µM) | 9.15 (≈ 21.7 µM) | 1.38 (≈ 3.27 µM) | 22.8 (≈ 53.9 µM) | > 100 | > 100 | > 100 | > 100 | 100 | 84 | 75.7 | 62.7 | 37.5 | 0 | 98.9 | 90.4 | 82.1 | 97.2 | inhibition at 10 µg/mL (Bacillus subtilis [16]): 79.3%; inhibition at 3 µg/mL (Bacillus subtilis [17]): 66.3%; inhibition at 30 µg/mL [18]: -6.69%; inhibition at 10 µg/mL [19]: -3.66%; inhibition at 3 µg/mL [20]: 9.56%
